Patent US8124655B2, “Use of LR-90 and LR-102 to overcome insulin resistance” (City of Hope, priority 2007, dated 2012)

How the values were obtained:
[1] = described in U.S. Pat. No. 6,787,566; cited from earlier work
[2] = tested on: Zucker diabetic fatty rats (ZDF, fa/fa); assay: Metabolic data of ZDF rats treated with LR-90 or LR-102 (Example 2); type: in vivo, rat; conditions: ZDF rats at 40 weeks of age, Mean ± SEM
Experimental: The present Example presents the results of an investigation of the effects of LR-90, an inhibitor of AGE/ALE formation, in male Zucker diabetic fatty rats (ZDF, fa/fa) fed with Purina 5008 diet until 40 weeks of age, and their hetorozygous lean littermates (ZDF fa/+) as non-hyperglycemic controls. LR-90 at 50 mg/L of drinking water was given to a subgroup of ZDF rats after the rats developed spontaneous diabetes at 13 weeks of age. At 40 weeks of age, and before killing the animals, their weight was measured; HbA1c, plasma glucose, insulin, triglycerides, cholesterol, CRP and urinary albumin and creatinine concentrations were measured. After euthanizing all animals, organs such as the kidneys, eyeballs, liver, heart, aortae and pancreas were dissected and subjected to immunohistochemical staining, RT-PCR, Western blotting and microscopy.

[3] = tested on: Zucker diabetic fatty rats (ZDF, fa/fa); assay: Pancreatic islet immunohistochemistry and PAMS staining (Example 2); type: in vivo, rat; conditions: FIG. 8
Source text: FIG. 7. Immunohistochemical analysis and quantification of islet cells. ZDF GM fa/fa rats and lean control rats were fed with high fat diet for 30 weeks and received either nothing or LR-90 or LR-102 in their drinking water. Pancreatic sections from various groups of animals were stained with anti-insulin antibody or anti-glucagon antibody. A. Representative images with the overlay of the insulin (green) and glucagon (red staining). […] B. Insulin-positive β-cell-to-glucagon-ratio was also measured from these images.
FIG. 8. Periodic acid methenamine silver (PAMS) staining of pancreatic tissues. Sections from cryopreserved pancreas of each group of animals on the study were stained with PAMS and examined under light microscopy.
LR-90 at 50 mg/L of drinking water was given to a subgroup of ZDF rats after the rats developed spontaneous diabetes at 13 weeks of age. At 40 weeks of age, and before killing the animals, their weight was measured; HbA1c, plasma glucose, insulin, triglycerides, cholesterol, CRP and urinary albumin and creatinine concentrations were measured. After euthanizing all animals, organs such as the kidneys, eyeballs, liver, heart, aortae and pancreas were dissected and subjected to immunohistochemical staining, RT-PCR, Western blotting and microscopy.

Compound: CC(C)(Oc1ccc(N=Cc2ccc(C=Nc3ccc(OC(C)(C)C(=O)O)cc3)cc2)cc1)C(=O)O [LR-102, 1,4-benzene-bis[4-methyleneaminophenoxyisobutyric acid]]
- breaking AGE-protein cross-links [1]: active
- Plasma glucose ([2]; drug in drinking water): 29.8 ± 3.2 mmol/dL
- Cholesterol [2]: 290 ± 35 mg/dL
- HbA1c [2]: 2.80 ± 0.12%
- Plasma CRP [2]: 0.77 ± 0.05 mg/mL
- Plasma insulin, ELISA [2]: 0.68 ± 0.10 ng/mL
- Plasma insulin, RIA [2]: 0.65 ± 0.10 ng/mL
- Triglycerides [2]: 536 ± 63 mg/dL
- Urinary Albumin [2]: 35.4 ± 15.8 mg/24 h
- PAMS staining of pancreatic islets [3]: amelioration
